Where two headings read alike, the source gives them in different places. Marks after values point to notes of the source that are not given here.

Here are results for 13 molecules from patent US6441029B1, “Method of suppressing tumor growth with combinations of isoprenoids and statins” (Wisconsin Alumni Research Foundation, priority 1997, dated 2002).

In data set [1] the test system is Murine B16(F10) melanoma cells. Put plainly: IC50 determinations: net increase in 48 hour melanoma cell count. It counts as cell-based. As for the experimental part:
(§1) Cultures, seeded with 1-1.5×10^5 cells, were incubated for 24 hours at 37° C. in a humidified atmosphere of 5% CO2. Isoprenoids, dissolved in absolute ethanol, were added at 24 hours (0 time); all cultures contained 5 mL ethanol/L ([…]). The cultures were incubated for an additional 48 hours. The media was removed and the monolayers were washed twice with Hanks' Balanced Salt Solution (Sigma) and then incubated with a trypsin-EDTA solution (Sigma) at 37° C. for 2 minutes. Trypsin was inactivated by suspending the cells in medium containing 10% fetal bovine serum (Sigma). The cells were pelleted at 250×g and resuspended in Hanks' Balanced Salt Solution. Viable cells, cells that excluded 0.4% trypan blue (GIPCOBRL), were counted with a hemocytometer; 24 hour cell counts were deducted from final cell counts to provide an estimate of the net increase in cell number.
FIG. 1 is a representative evaluation of the dose-dependent impact of five different tocols on the proliferation of melanoma B16 cells. Cultures (3 mL) seeded with 1-1.5×10^5 cells were incubated for 24 hours prior to the introduction of the tocols. Viable cells were counted at 48 hours following the addition of the tocols. The cell count at 24 hours (0 time) is shown by the dashed line. The intersection of the solid horizontal line and the line plotted for each tocol indicates the concentration at which the tocol suppressed by 50% the increase in cell number during the incubation (IC50 value). IC50 values (mean, SD and n) for all isoprenoids tested are listed on Table 1. […] The growth-suppressive potency of the individual tocotrienols was inverse to the number of methyl groups on the 6-chromanol ring: d-α-tocotrienol (methyl groups at carbons 5, 7, 8 and 2)<<d-γ-tocotrienol (methyl groups at carbons 7, 8 and 2)<d-δ-tocotrienol (methyl groups at carbons 8 and 2)<<d-2-desmethyl tocotrienol (no methyl groups) (Table 1).

In data set [2] the test system is B16 melanoma cells. Description: Paired isoprenoids, 48 hour cell count (FIG. 2A, 2B). It counts as cell-based, Murine. As for the experimental part:
as §1
We next determined that the effects of the isoprenoids on the growth of B16 melanoma cells in culture are additive, and in some cases, synergistic. FIG. 2A illustrates the additive effects of γ-tocotrienol and β-ionone on B16 melanoma cell populations. Values are means±SD, n=28; pooled SEM=36 (×10^4). Cell counts calculated to show the decreased population relative to the control are listed on the insert table.
FIG. 2B illustrates the additive effects of carvacrol and β-ionone on B16 melanoma cell populations. Values are means±SD, n=28; pooled SEM=62 (×10^4). Cell counts calculated to show the decreased population relative to the control are listed in the inset table. ^a-hMeans not sharing a superscript (a>b>c>d>e>f>g>h) are different (P<0.001). Referring to FIG. 2, B16 melanoma cells were incubated with β-ionone and d-γ-tocotrienol in one test (FIG. 2A). d-γ-Tocotrienol (7.5 μmol/L) and β-ionone (50 μmol/L) reduced the 48 hour cell count by 19% and 10% respectively (FIG. 2A). The 34% reduction in cell number achieved with the paired isoprenoids exceeded the 29% reduction predicted by the sum of the individual effects (FIG. 2A, inset). At higher concentrations d-γ-tocotrienol (15 μmol/L) and β-ionone (100 μmol/L) reduced the 48 hour cell count by 34% and […] respectively; the additive effect, a 68% reduction in cell number, was also greater than the sum of the individual effects (59%) (FIG. 2A, inset).
Carvacrol (50 μmol/L) and β-ionone (75 μmol/L) reduced the 48 hour cell count by 25% and 31% respectively; the additive effect, a 48% reduction in cell number, was less than the 56% reduction predicted by the sum of the individual effects. Carvacrol (100 μmol/L) and β-ionone (150 μmol/L) reduced the cell count by 35% and 65% respectively; the additive effect, an 84% reduction in cell number, again was less than the 100% reduction predicted by the sum the individual effects (FIG. 2B, inset). The reduction in cell number predicted by the sum of the individual effects of the isoprenoids was highly correlated with that achieved with the paired isoprenoids (r=0.91, n=8, P<0.01).

The conditions of data set [3]: ubiquinone given to patients receiving 30 mg/kg or higher doses of lovastatin; cited from earlier work.
For data set [4], the system named is B16(F10) melanoma. To be noted: mouse, in vivo.
Description: The first examined the impact of a diet-relevant intake of d-γ-tocotrienol on the growth of B16(F10) melanomas in host mice. […] We first prepared a basal diet mix, patterned after the AIN-76A formulation (American Institute of Nutrition, 1977) but free of corn oil and dl-α-tocopherol. These ingredients and Vitamin E-stripped corn oil were purchased from Teklad Test Diets, Madison, Wis. Stock solutions of dl-α-tocopherol (80 μmol/g) and d-γ-tocotrienol (80 μmol/g) were prepared with vitamin E-stripped corn oil. Stock solutions of the tocols, diluted with vitamin E-stripped corn oil, were mixed with the basal diet to provide finished diets containing 5% corn oil and specified tocol concentrations. Where noted, β-ionone was added to the oil. The diets, mixed weekly, were stored under refrigeration. Food cups were cleaned and refilled daily.
Experiment 1: Weanling C57BL female mice (Harlan-Sprague Dawley, Madison, Wis.) were housed in groups of four on wood shavings in plastic cages and maintained at 25° C. with a 12 hour light-dark cycle. The four groups of mice (20/group) were fed experimental diets for 10 days prior to and for 28 days following the implantation of B16 melanoma cells. The split plot design consisted of four treatments comprised of two tocols, dl-α-tocopherol and d-γ-tocotrienol, each presented at two levels, 116 and 924 μmol/kg diet. This design permitted two comparisons of diets equal in tocol content and one comparison of diets about equal in d-α-tocopherol equivalents. […] We then corrected for the biological activity of the dl-α-tocopherol mixture (70% of the activity of d-α-tocopherol) in arriving at the 8:1 tocotrienol/tocopherol ratio used in formulating the experimental diets. Melanoma cells, cultured and harvested as previously, described (Shoff, et al., 1991), were washed twice with RPMI 1640 containing 10% Fetal Bovine Sera (GIBCOBRL). The pelleted cells were suspended in RPMI 1640 and counted (98% viable) after a 1:20 dilution in 0.4% trypan blue. The cells were further diluted in RPMI 1640 (1×10^8 cells/L) and 0.1 mL of the suspension (1×10^4 cells) was injected subcutaneously into the flank of each mouse. […] The mice were killed by CO2 overdose and the tumors were excised and weighed.
Statistical Methods: StatView and SuperANOVA software (Abacus Concepts, Berkeley, Calif.) were used for the assessment of treatment-mediated effects. Treatment-mediated differences in body and tumor weights, days to tumor appearance and days to morbidity were identified with split plot analysis of variance and pairwise t-tests of least squares means. Treatment-mediated differences in days to morbidity were also assessed using parametric (paired t-test) and nonparametric (Wilcoxon signed rank) tests (Haycock, et al., 1992).
The first dietary study evaluated the impact of d-γ-tocotrienol and dl-α-tocopherol on days to detection of a solid tumor and growth of implanted B16 melanomas.
For data set [5], the system named is implanted murine melanoma B16F10 tumors. To be noted: 2 mmol/kg diet; cited from earlier work.
Data set [6] has as its system established implanted B16 melanoma. Description: Experiment 2: isoprenoid-enriched diets, survival of mice bearing established melanomas. It counts as in vivo, C57BL female mice. As for the experimental part:
Where noted, β-ionone was added to the oil. The diets, mixed weekly, were stored under refrigeration. Food cups were cleaned and refilled daily.
Experiment 2: Weanling female C57BL female mice (n=60, Harlan Sprague-Dawley) were acclimated to the housing conditions and AIN-76A diet (116 μmol dl-α-tocopherol/kg diet) as described above. Tumors were implanted and the mice continued to receive the AIN-76A diet. Beginning on day 8 post-implant the mice were palpated daily for the presence of a tumor. Tumors were first detected on day 14. Random numbers were generated for assigning each mouse in a sequential subset of five to a diet. Experimental treatments provided 2 and 4 mmol d-γ-tocotrienol/kg diet. We additionally tested the impact of β-ionone (2 mmol β-ionone/kg AIN-76A diet) and that of a blend of the two isoprenoids (2 mmol each/kg diet) on the survival of the mice.
We then asked if either dietary d-γ-tocotrienol or β-ionone would prolong the survival of mice bearing implanted melanomas. Dietary treatments were initiated following the detection of solid tumors. We also asked whether these structurally diverse isoprenoids would have an additive effect on survival. The experimental groups were constructed by random assignment of each member of successive subsets of 5 mice to one of the experimental diets. […] Treatments increased median duration of survival by 42±4.5% and the mean duration of survival by 30% (P<0.005); differences between duration of survival means of the experimental groups were not significant (Table 3, FIG. 3). FIG. 3 is a survival curve for host mice receiving isoprenoid-enriched diets following the detection of a solid implanted B16 melanoma. Mean survival durations are presented on Table 4. β-ionone and γ-tocotrienol^1 treatments provided 2 mmol of the isoprenoid/kg diet; the blend provided 2 mmol of each isoprenoid/kg diet; and γ-tocotrienol^2 provided 4 mmol γ-tocotrienol/kg diet.

Data set [7] deals with Murine B16(F10) melanoma cells. To be noted: L. He, et al., J. Nutr. 1997; read-out: IC50, proliferation of murine melanoma B16/F10 cells; cited from earlier work.
Data set [8] relates to murine melanoma B16/F10 cells. Description: In vitro growth assays of lovastatin, β-ionone and γ-tocotrienol alone and combined (Table 5). Format: cell-based.
The mark [9] stands for this setting: read-out: IC50: concentration required to suppress the increase in the population of melanoma cells by 50% during a 48 hour incubation; 48 hour incubation; means ± SD.
Where [10] appears, read: 48 hour incubation; means ± SD; read-out: IC50: concentration required to suppress the increase in the population of melanoma cells by 50% during a 48 hour incubation.

Consider `Cc1ccc(C(C)C)cc1O` [Carvacrol, 5-isopropyl-2-methylphenol, reference compound], for which the IC50 in data set [1] (setting [9]) was 120 ± 15 µM. For the same molecule, the “reduction of 48 hour cell count” value worked out at 25% in data set [2] (50 μmol/L) and 35% in data set [2] (100 μmol/L).

For the molecule `CC(C)=CCC/C(C)=C/CC/C(C)=C/CO` [Farnesol, trans, trans 3,7,11-trimethyl-2,6,10 dodecatrien-1-ol], the IC50 in data set [1] (setting [10]) was found to be 50 µM.

Regarding `CC(C)=CCC/C(C)=C/CO` [Geraniol, trans 3,7-dimethyl-2,6-octadien-1-ol], the IC50 in data set [1] (setting [10]) came to 150 ± 19 µM.

For the molecule `C=C(C)C1CC=C(C=O)CC1` (centres unmarked) [Perillaldehyde, [R]-4-isopropenyl-1-carboxaldehyde cyclohexene], the IC50 in data set [1] (setting [9]) amounted to 120 ± 17 µM.

As for `C=C(C)[C@@H]1CC=C(CO)CC1` [Perillyl alcohol, [R]4-isopropenyl-1-methanol-cyclohexene], the IC50 in data set [1] (setting [10]) was 250 µM.

With `Cc1ccc(C(C)C)c(O)c1` [Thymol, 5-methyl-2-isopropylphenol], the IC50 in data set [1] (setting [10]) is 120 ± 15 µM.

Regarding `COC1=C(OC)C(=O)C(C/C=C(\C)CC/C=C(\C)CC/C=C(\C)CC/C=C(\C)CC/C=C(\C)CC/C=C(\C)CC/C=C(\C)CC/C=C(\C)CC/C=C(\C)CCC=C(C)C)=C(C)C1=O` [Ubiquinone], in data set [3], the “incidence of musculoskeletal toxicity of lovastatin” value is listed as “did not decrease” and the “severity of musculoskeletal toxicity of lovastatin” value was “significantly decreased”.

For `Cc1c(C)c2c(c(C)c1O)CCC(C)(CCCC(C)CCCC(C)CCCC(C)C)O2` (stereo not drawn) [d1-α-Tocopherol, 2,5,7,8-tetramethyl-2-(4,8,12-trimethyltridecyl)-chroman-6-ol], in data set [4], the “body weight at the time of tumor implant” value is given as “significantly lower”. Moreover, the IC50 in data set [1] (setting [9]) is greater than 1600 µM. Also, the “impact on cell number (FIG. 1)” value in data set [1] (viable cells at 48 hours after addition) is reported as “no impact on cell number”.

In the case of `CC(C)=CCCC(C)=CCCC(C)=CCCC1CCc2cc(O)ccc2O1` (stereo not drawn) [d-2-desmethyl Tocotrienol, 2-(4,8,12-trimethyltrideca-3,7,11-trienyl)-chroman-6-ol], the IC50 in data set [1] (setting [10]) was 0.9 µM.

As to `C=C(C)[C@H]1CC=C(C)CC1` [d-Limonene, [R]4-isopropenyl-1-methyl-1-cyclohexene], in data set [1] (setting [10]), the IC50 turned out to be 450 µM.

As for `CC(C)=CCCC(C)=CCCC(C)=CCCC1(C)CCc2c(C)c(O)c(C)c(C)c2O1` (stereo not drawn) [d-α-Tocotrienol, 2,5,7,8-tetramethyl-2-(4,8,12-trimethyltrideca-3,7,11-trienyl)-chroman-6-ol], in data set [1] (setting [10]), the IC50 amounted to 110 µM.

`CC(C)=CCCC(C)=CCCC(C)=CCCC1(C)CCc2cc(O)cc(C)c2O1` (stereo not drawn) [d-δ-Tocotrienol, 2,8-dimethyl-2-(4,8,12-trimethyltrideca-3,7,11-trienyl)-chroman-6-ol]: the IC50 in data set [1] (setting [10]) amounted to 10 µM.

Regarding `CC(=O)C=CC1=C(C)CCCC1(C)C` [β-Ionone], in data set [5], the “growth of implanted murine melanoma B16F10 tumors” value is on record as “suppressed”. In addition, the “Days survival, Mean” value in data set [6] (2 mmol/kg diet, n = 12) is 18.27^a Days. For the same molecule, the “Days survival, Median” value in data set [6] (2 mmol/kg diet, n = 12) came to 23.0 days. Also, in data set [6] (diet providing 7 μmol/d), the “growth of established B16 melanomas” value is listed as “suppressed”. In addition, the “duration of host survival” value in data set [6] (experimental diets versus control, P<0.03) is “significantly increased”. Also, the IC50 is 140 ± 23 µM in data set [1] (setting [10]) and 140 µM in data set [7]. For the same molecule, the Growth in data set [8] (50 μmol/L) is recorded as 90 % of Control; in data set [8] (100 μmol/L) it was 84 % of Control; in data set [8] (150 μmol/L), 68 % of Control. In addition, in data set [8] (150 μM), the “decrease in cell growth” value is on record as 32%. Further, the “reduction of 48 hour cell count” value in data set [2] (50 μmol/L) is reported as 10%; in data set [2] (75 μmol/L) it was 31%; in data set [2] (100 μmol/L), 16%; in data set [2] (150 μmol/L) it was 65%.
